Source: patent publication US7585639B1, “Methods for modulating ATP-binding cassette transmembrane reporter protein expression” (Trustees of Dartmouth College, priority 1999, dated 2009)

What was measured:
CFTR [1] = assay: Chloride permeability by MQAE fluorescence, T84 cells; type: cell-based
Experimental: (§1) The correlation between increased levels and increased functional CFTR in the cell membrane was also examined either by measuring chloride permeability using MQAE fluorescence or trans-epithelial chloride currents using the Ussing chamber assay. […] Dox increased total cellular CFTR protein levels by 1.6- to 2-fold in T84 cells, and levels were maximal at approximately 18 to 24 hours after treatment. […] Dox increased the amount of cell surface-detectable CFTR by approximately 2.5- to 3-fold in these cells. Dox treatment of T84 cells was also determined to increase CFTR-associated chloride currents by approximately 2.1-fold as measured by the Using chamber assay and to increase chloride permeability by approximately 2-fold as measured by MQAE fluorescence in these cells.

[2] = system: GFP-tagged wild-type human CFTR; assay: Chloride currents in MDCK-derived cell line stably transfected with GFP-tagged wild-type human CFTR (control); type: cell-based; settings: MDCK cells with GFP-tagged wild-type human CFTR
Experimental: (§2) The ability of Dox to increase functional expression of ΔF508 CFTR in a similar manner was then assessed. In initial experiments, the effects of Dox on ΔF508 CFTR expression were examined in a canine kidney MDCK-derived cell line that had been stably transfected with a human ΔF508 CFTR cDNA construct expressed under the control of a CMV promoter. As controls, the effects of Dox on CFTR expression in the wild-type parental MDCK-C7 cells from which the stable cell line was derived and an MDCK-derived cell line stably transfected with GFP-tagged wild-type human CFTR also under the control of the CMV promoter were examined. Dox had no effect on chloride currents in either controls.

human ΔF508 CFTR = assay: Chloride currents in MDCK-derived cell line stably transfected with human ΔF508 CFTR cDNA (CMV promoter); type: cell-based; settings: MDCK cell line expressing human ΔF508 CFTR; statistically significant
Experimental: as §2

CFTR [3] = assay: Trans-epithelial chloride currents, Ussing chamber assay, T84 cells; type: cell-based
Experimental: as §1

MDCK-C7 cells = assay: Chloride currents in wild-type parental MDCK-C7 cells (control); type: cell-based, canine
Experimental: as §2

GFP-Pgp = settings: MDR29 cells
[4] = system: MDR4, MDR10, MDR29 and parental MDCK-C7 cells; settings: dog, 3 days
Experimental: Cells were plated in 96 well plates (Fisher, Medford, Mass.) at a density of 1000 cells per well. Twenty-four hours after plating, the cells were dosed with 0-10 μM Dox in serum-free media as described above. The cells were incubated for three days and assayed using the CellTiter 96 AQueous One Solution Reagent (Promega Corp., Madison, Wis.) using the manufacturer's instructions. The data were collected and analyzed using the Softmax software. A cytotoxicity assay was also performed with cisplatin (0-30 μM) as described above.

CFTR protein levels = CFTR protein levels by western blotting using anti-CFTR antibodies in T84 cells; type: cell-based
Experimental: as §1

[5] = system: wild-type CFTR mRNA expression; assay: CFTR mRNA expression in HT-29 human colon cell line; type: cell-based; settings: HT-29 cells
Experimental: Experiments were performed which identified specific agents that increase functional cell surface expression of the ΔF508 CFTR protein. […] However, a rapid increase in CFTR mRNA to 1.5-fold over controls was seen by 48 hours and remained high through the end of the experiment.

Compound | increase in chloride permeability (CFTR [1]) | effect on chloride currents [2] | increase in chloride currents (human ΔF508 CFTR) | increase in CFTR-associated chloride currents (CFTR [3]) | effect on chloride currents (MDCK-C7 cells) | membrane Pgp levels (GFP-Pgp; 24-72 hour period after treatment) | cellular GFP levels (GFP-Pgp; compared with Pgp membrane levels) | EC50 for cytotoxicity (colony formation), MDR cell lines relative to parental cell line [4] | mature CFTR protein levels (CFTR protein levels) | effect on CFTR mRNA expression ([5]; between 0 and 36 hours after treatment) | increase in CFTR mRNA over controls ([5]; by 48 hours, remained high through end of experiment) | CFTR mRNA expression over a 72 hour period ([5]; single non-toxic treatment, over 72 hours)
COc1cccc2c1C(=O)c1c(O)c3c(c(O)c1C2=O)C[C@@](O)(C(=O)CO)C[C@@H]3O[C@H]1C[C@H](N)[C@H](O)[C@H](C)O1 [Dox, doxorubicin] | approximately 2 fold | no effect | approximately 1.7 fold | approximately 2.1 fold | no effect | progressive and substantial increase | increased earlier and to a greater extent | 2.5-3.5 fold | – | – | – | –
CO[C@@]12[C@H](COC(N)=O)C3=C(C(=O)C(C)=C(N)C3=O)N1C[C@@H]1N[C@@H]12 [MMC, mitomycin C] | – | – | – | approximately 1.2 fold | – | – | – | – | significantly increased | Little or no effect | 1.5 fold | significant increase
